Counter-ions that a name gives are not always drawn. Like-named read-outs stand apart in the source and are kept apart here.
How the values were obtained:
[1] = test system: expanded OPCs; assay: cells; settings: for viability at 0.1 µM / viability at 1 µM / viability at 10 µM: Rattus norvegicus, 72 h
Summary of the method: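 Toxicity screen: compounds added at 0.1, 1 and 10 µM to PDGF-AA-expanded OPCs in 96-well plates, 3-day incubation at 37 °C, 10% CO2, then alamarBlue 1:10 for 4 h with fluorescence readout. Results set screening doses of 10/2, 2/0.4 or 0.4/0.08 µM.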

[2] = test system: acutely dissociated and purified rat OPCs; assay: Acute OL differentiation assay (MBP expression/cell, immunofluorescent image quantification); type: cell-based; settings: sheet "All OLga data"; for activation at 2 µM / activation at 10 µM / activation at 0.4 µM / activation at 0.08 µM: Rattus norvegicus
Summary of the method: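 This acute differentiation assay used purified rat OPCs from postnatal day 6–7 pups, seeded into PDL/laminin-coated 96-well plates in differentiation medium lacking PDGF and FGF. Compounds were applied in quadruplicate after a 1–2 h preincubation at 37 °C, 10 % CO2, with 0.1 % DMSO negative and 40 ng/ml T3 positive controls in eight wells. After fixation on DIV4, anti-MBP immunofluorescence images yielded MBP expression/cell.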

[3] = read-out: 0.1 µM (% DMSO), alamarBlue viability, NCC library compound at 0.1 µM, sheet "All Tox data"
[4] = read-out: 1 µM (% DMSO), alamarBlue viability, NCC library compound at 1 µM, sheet "All Tox data"
[5] = read-out: 10 µM (% DMSO), alamarBlue viability, NCC library compound at 10 µM, sheet "All Tox data"
[6] = 2 uM test compound, relative to quetiapine, read-out: OL differentiation, 2 uM (% Quet)
[7] = 10 uM test compound, relative to quetiapine, read-out: OL differentiation, 10 uM (% Quet)
[8] = read-out: 0.1 µM (% DMSO), alamarBlue viability of expanded OPCs, compound at 0.1 µM, sheet All Tox data
[9] = read-out: 1 µM (% DMSO), alamarBlue viability of expanded OPCs, compound at 1 µM, sheet All Tox data
[10] = read-out: 10 µM (% DMSO), alamarBlue viability of expanded OPCs, compound at 10 µM, sheet All Tox data
[11] = alamarBlue viability, NCC library compound at 0.1 µM, sheet "All Tox data"
[12] = alamarBlue viability, NCC library compound at 1 µM, sheet "All Tox data"
[13] = alamarBlue viability, NCC library compound at 10 µM, sheet "All Tox data"
[14] = test compound at 2 uM, NCC library screen, relative to quetiapine
[15] = alamarBlue viability of expanded OPCs, compound at 0.1 µM, relative to DMSO control
[16] = alamarBlue viability of expanded OPCs, compound at 1 µM, relative to DMSO control
[17] = alamarBlue viability of expanded OPCs, compound at 10 µM, relative to DMSO control
[18] = test compound at 2 uM, NCC library screen, relative to quetiapine, read-out: 2 uM (% Quet)
[19] = test compound at 10 uM, NCC library screen, relative to quetiapine, read-out: 10 uM (% Quet)
[20] = 0.4 uM test compound, relative to quetiapine, read-out: OL differentiation, 0.4 uM (% Quet)
[21] = 0.08 uM test compound, relative to quetiapine, read-out: OL differentiation, 0.08 uM (% Quet)

For `CC(=O)OCC(=O)NCCCOc1cccc(CN2CCCCC2)c1` [Roxatidine acetate], the viability at 0.1 µM [1, 3] was 101%, the viability at 1 µM [1, 4] was 96% and the viability at 10 µM [1, 5] was 85.7%. For the same molecule, the activation at 2 µM [2, 6] was -1.7% and the activation at 10 µM [2, 7] was 8.2%.
`CN1CCN(c2c(F)cc3c(=O)c(C(=O)O)cn4c3c2SCC4)CC1` [Rufloxacin] gave a viability at 0.1 µM [1, 8] of 98.3%, a viability at 1 µM [1, 9] of 89.1% and a viability at 10 µM [1, 10] of 103%. The activation at 2 µM [2, 6] was -26.4% and the activation at 10 µM [2, 7] was 7%.
Work on `C[C@@H]1O[C@@H](OC[C@H]2O[C@@H](Oc3c(-c4ccc(O)c(O)c4)oc4cc(O)cc(O)c4c3=O)[C@H](O)[C@@H](O)[C@@H]2O)[C@H](O)[C@H](O)[C@H]1O` [Rutin] yielded a viability at 0.1 µM [1, 8] of 106%, a viability at 1 µM [1, 9] of 108% and a viability at 10 µM [1, 10] of 106%. It also gave an activation at 2 µM [2, 6] of 22.9% and an activation at 10 µM [2, 7] of 21.3%.
`CN1CC[C@]2(c3cccc(O)c3)Cc3nc4ccccc4cc3C[C@H]2C1` [SB 205607] was tested, and the “0.1 µM (% DMSO)” value [1, 11] was 84.0 % DMSO, the “1 µM (% DMSO)” value [1, 12] was 78.4 % DMSO and the “10 µM (% DMSO)” value [1, 13] was 50.8 % DMSO. For the same molecule, the “0.4 uM (% Quet)” value ([2]; test compound at 0.4 uM, NCC library screen, relative to quetiapine) was 15.0 % Quet and the “2 uM (% Quet)” value [2, 14] was 5.9 % Quet.
For `Cl.NC1CCN(c2cccc(Cl)n2)CC1` [SR57227A], the “0.1 µM (% DMSO)” value ([1]; alamarBlue viability of expanded OPCs, compound at 0.1 µM, sheet All Tox data) was 85.7 % DMSO, the “1 µM (% DMSO)” value ([1]; alamarBlue viability of expanded OPCs, compound at 1 µM, sheet All Tox data) was 88.3 % DMSO and the “10 µM (% DMSO)” value ([1]; alamarBlue viability of expanded OPCs, compound at 10 µM, sheet All Tox data) was 77.5 % DMSO. The “OL differentiation, 2 uM (% Quet)” value ([2]; 2 uM test compound, relative to quetiapine) was 13.8 % Quet and the “OL differentiation, 10 uM (% Quet)” value ([2]; 10 uM test compound, relative to quetiapine) was 30.8 % Quet.
For `CN(C)[C@@H]1C(O)=C(C(N)=O)C(=O)[C@@]2(O)C(O)=C3C(=O)c4c(O)cccc4C[C@H]3C[C@@H]12` [Sancycline], the “0.1 µM (% DMSO)” value [1, 15] was 88.7 % DMSO, the “1 µM (% DMSO)” value [1, 16] was 89.0 % DMSO and the “10 µM (% DMSO)” value [1, 17] was 83.0 % DMSO. The activation at 2 µM [2, 18] was 1.8% and the activation at 10 µM [2, 19] was 27.4%.
With `CC(C)(C)NC(=O)[C@@H]1C[C@@H]2CCCC[C@@H]2CN1C[C@@H](O)[C@H](Cc1ccccc1)NC(=O)[C@H](CC(N)=O)NC(=O)c1ccc2ccccc2n1` [Saquinavir] the viability at 0.1 µM [1, 3] was 95%, the viability at 1 µM [1, 4] was 88.9% and the viability at 10 µM [1, 5] was 14.5%. It also gave an activation at 0.4 µM [2, 20] of -24.5% and an activation at 2 µM [2, 6] of -82.7%.
`CN1[C@@H]2C[C@@H](OC(=O)[C@H](CO)c3ccccc3)C[C@H]1[C@@H]1O[C@@H]12` [Scopolamine hydrobromide] showed a viability at 0.1 µM [1, 8] of 81.1%, a viability at 1 µM [1, 9] of 90.5% and a viability at 10 µM [1, 10] of 88.5%. It also gave an activation at 0.08 µM [2, 21] of 21.6% and an activation at 0.4 µM [2, 20] of 10.9%.
Molecule `Cc1ncc([N+](=O)[O-])n1CC(C)O` (stereo not shown) [Secnidazole] has a viability at 0.1 µM [1, 8] of 97.5%, a viability at 1 µM [1, 9] of 99.6% and a viability at 10 µM [1, 10] of 110%. It also gave an activation at 2 µM [2, 6] of 8.1% and an activation at 10 µM [2, 7] of 2.5%.
For `COc1cc(C[C@@H](CO)[C@H](CO)Cc2ccc(O)c(OC)c2)ccc1O` [Secoisolariciresinol], the “0.1 µM (% DMSO)” value [1, 11] was 92.4 % DMSO, the “1 µM (% DMSO)” value [1, 12] was 88.4 % DMSO and the “10 µM (% DMSO)” value [1, 13] was 78.5 % DMSO. The “2 uM (% Quet)” value [2, 14] was -3.9 % Quet and the “10 uM (% Quet)” value ([2]; test compound at 10 uM, NCC library screen, relative to quetiapine) was 12.5 % Quet.
Work on `C#CCN(C)[C@H](C)Cc1ccccc1` [Selegiline] yielded a viability at 0.1 µM [1, 8] of 85.8%, a viability at 1 µM [1, 9] of 88.8% and a viability at 10 µM [1, 10] of 91.2%. For the same molecule, the “0.1 µM (% DMSO)” value [1, 15] was 101.6 % DMSO, the “1 µM (% DMSO)” value [1, 16] was 93.8 % DMSO and the “10 µM (% DMSO)” value [1, 17] was 94.0 % DMSO. It also gave an activation at 2 µM [2, 6] of 10.1%, an activation at 10 µM [2, 7] of 19.7% and an activation at 2 µM [2, 18] of 0.64%. The activation at 10 µM [2, 19] was 11.2%.
Molecule `CN[C@H]1CC[C@@H](c2ccc(Cl)c(Cl)c2)c2ccccc21` [Sertraline] has a viability at 0.1 µM [1, 8] of 74.6%, a viability at 1 µM [1, 9] of 24.6% and a viability at 10 µM [1, 10] of 11.1%. For the same molecule, the “0.1 µM (% DMSO)” value [1, 15] was 52.7 % DMSO, the “1 µM (% DMSO)” value [1, 16] was 20.4 % DMSO and the “10 µM (% DMSO)” value [1, 17] was 7.7 % DMSO. The activation at 0.08 µM [2, 21] was 0.9%, the activation at 0.4 µM [2, 20] was -63.6% and the activation at 0.08 µM ([2]; test compound at 0.08 uM, MBP expression relative to quetiapine, NCC library screen, read-out: 0.08 uM (% Quet)) was -13.2%. For the same molecule, the activation at 0.4 µM ([2]; test compound at 0.4 uM, MBP expression relative to quetiapine, NCC library screen, read-out: 0.4 uM (% Quet)) was -134%.
